Legend:
microtubule assembly = conditions: review of the literature; cited from earlier work
[1] = test system: HUVEC, A498, A548, SF268, SKOV3, and DU145; assay: Multivariate quantitative phenotype dose response by image analysis (tubulin feature); format: cell-based, human
From the text: As indicated, phenotypic vectors for given stimuli and level combinations may include multivariate information taken from different cell lines. However, this need not be the case, as all the multivariate data of interest may be obtained from a single cell line. Generally, a researcher will chose one or a range of cell lines that are relevant to the area of interest. For example, if the researcher focuses on oncology applications, the cell lines chosen may include different types of cancers and possibly other cells lines that allow one to identify typical side effects of anti cancer drugs. In one specific embodiment pertaining to oncology, six different cell lines are considered. These include HUVEC (human umbilical vein endothelial cells), A498, A548, SF268, SKOV3, and DU145.
In a more specific embodiment, the parameter set for each dose/compound point in a response path includes parameters derived from DNA markers, Golgi markers, and tubulin markers. […] The size of the nuclei as derived from a DNA marker. […]
The data points are presented within the first three principal components obtained for the entire data set. […] The specific features and cell lines used to construct the quantitative phenotypes shown as points in the plot are set forth above in the “Multivariate Phenotypic Data from Images” and “Selecting Experiments for Providing Response Paths” sections. […]

C=C1[C@@H](C)[C@H]2[C@H](Cc3ccccc3)NC(=O)[C@]23OC(=O)/C=C/C(=O)CCC[C@@H](C)C/C=C/[C@H]3[C@@H]1O [Cytochalasin A]
effect on microtubule assembly (microtubule assembly): interferes with microtubule assembly by reacting with sulfhydryl groups | change in tubulin biological features with increasing concentration ([1]; all cell lines, eight concentrations): lack of an increase in the tubulin features | affinity of the microtubule side effect compared with affinity for actin ([1]; inferred from common PCA trajectory at lower concentrations): lower affinity

From patent US7657076B2, “Characterizing biological stimuli by response curves” (Cytokinetics, Inc., priority 2001, dated 2010)
